Data taken from patent US20260347373A1, “HETEROCYCLIC COMPOUNDS, COMPOSITIONS THEREOF, AND METHODS OF TREATMENT THEREWITH” (BeOne Medicines I GmbH, priority 2023, published 2026).
Like-named read-outs stand apart in the source and are kept apart here.

Assays:
[1] = molecular target: WT KRAS (Homo sapiens, UniProt P01116); experiment: KRAS WT Probe Displacement Assay (TR-FRET, GDP-loaded); format: binding
Source text: (§1) The synthetic routes of probe 1 and 2, which have been disclosed in PCT/CN2022/070676, are hereby incorporated herein.

[2] = molecular target: KRAS G12D (Homo sapiens, UniProt P01116, G12D); experiment: KRAS G12D Probe Displacement Assay (TR-FRET, GDP-loaded); format: binding
KRAS G12D, sequence (P01116 1-188 isoform P01116-2 G12D): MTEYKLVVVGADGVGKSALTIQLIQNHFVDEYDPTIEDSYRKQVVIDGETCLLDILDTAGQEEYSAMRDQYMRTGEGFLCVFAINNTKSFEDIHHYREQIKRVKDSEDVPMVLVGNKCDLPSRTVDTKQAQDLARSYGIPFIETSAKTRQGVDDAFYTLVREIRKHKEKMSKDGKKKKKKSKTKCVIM
Source text: as §1

[3] = KRAS WT, read-out: KRAS^WT Probe Displacement Assay IC50
[4] = KRAS G12D, read-out: KRAS^G12D Probe Displacement Assay IC50

WT KRAS, sequence (P01116 1-188 isoform P01116-2): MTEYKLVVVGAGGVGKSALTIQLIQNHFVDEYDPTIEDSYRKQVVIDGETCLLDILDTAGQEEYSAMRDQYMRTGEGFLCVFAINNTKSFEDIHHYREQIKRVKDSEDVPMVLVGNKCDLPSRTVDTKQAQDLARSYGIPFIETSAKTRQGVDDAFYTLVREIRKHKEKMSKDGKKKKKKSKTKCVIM

`Cc1cc(N)cc(-c2nc3c4c(nc(OCC5(CN6CCC(=C(F)F)C6)CC5)nc4c2F)N2C[C@H]4CC[C@H](N4)[C@H]2CCO3)c1C(F)(F)F` [Example 149, 3-((6aR,7S,10R)-13-((1-((3-(difluoromethylene)pyrrolidin-1-yl)methyl)cyclopropyl)methoxy)-1-fluoro-5,6,6a,7,8,9,10,11-octahydro-4-oxa-3,11a,12,14,15-pentaaza-7,10-methano-cyclohepta[4,5]cycloocta [1,2,3-de]naphthalen-2-yl)-5-methyl-4-(trifluoromethyl) aniline] gave an IC50 ([1]; KRAS^WT Probe Displacement Assay IC50, KRAS WT) of 3 to 1000 nM and an IC50 ([2]; KRAS^G12D Probe Displacement Assay IC50, KRAS G12D) of less than 0.3 nM.
Work on `Cc1cc(N)cc(-c2nc3c4c(nc(OCC5(CN6CC(F)C6)CC5)nc4c2F)N2C[C@H]4CC[C@H](N4)[C@H]2CCO3)c1C(F)(F)F` [Example 69, 3-((6aR,7S,10R)-1-fluoro-13-((1-((3-fluoroazetidin-1-yl)methyl)cyclopropyl)methoxy)-5,6,6a,7,8,9,10,11-octahydro-4-oxa-3,11a,12,14,15-pentaaza-7,10-methanocyclohepta[4,5]cycloocta [1,2,3-de]naphthalen-2-yl)-5-methyl-4-(trifluoromethyl)aniline] yielded an IC50 [1, 3] of 3 to 1000 nM and an IC50 [2, 4] of less than 0.3 nM.
`Cc1cc(N)cc(-c2nc3c4c(nc(OCC5(C)CN(C)CCC5C(F)F)nc4c2F)N2C[C@H]4CC[C@H](N4)[C@H]2CCO3)c1C(F)(F)F` (single isomer, unassigned) [Example 244] was tested, and the IC50 [1, 3] was 3 to 1000 nM and the IC50 [2, 4] was 0.3 to 3 nM.
`Cc1cc(N)cc(-c2nc3c4c(nc(OC[C@]56CCCN5CC(F)(F)C6)nc4c2F)N2C[C@H]4CC[C@H](N4)[C@H]2CCO3)c1C(F)(F)F` [Example 34, 3-((6aR,7S,10R)-13-(((R)-2,2-difluorotetrahydro-1H-pyrrolizin-7a(5H)-yl)methoxy)-1-fluoro-5,6,6a,7,8,9,10,11-octahydro-4-oxa-3,11a,12,14,15-pentaaza-7,10-methanocyclohepta[4,5]cycloocta [1,2,3-de]naphthalen-2-yl)-5-methyl-4-(trifluoromethyl)aniline] showed an IC50 [1, 3] of 3 to 1000 nM and an IC50 [2, 4] of 0.3 to 3 nM.
`Cc1cc(N)cc(-c2nc3c4c(nc(OCC5(CN6CCC(C)(O)CC6)CC5)nc4c2F)N2C[C@H]4CC[C@H](N4)[C@H]2CCO3)c1C(F)(F)F` [Example 115, 1-((1-((((6aR,7S, 10R)-2-(5-amino-3-methyl-2-(trifluoromethyl)phenyl)-1-fluoro-5,6,6a,7,8,9,10,11-octahydro-4-oxa-3, 11a,12,14,15-pentaaza-7,10-methanocyclohepta [4,5]cycloocta[1,2,3-de]naphthalen-13-yl)oxy)methyl)cyclopropyl)methyl)-4-methylpiperidin-4-ol] showed an IC50 [1, 3] of 0.3 to 3 nM and an IC50 [2, 4] of less than 0.3 nM.
`CCN1CC(F)CC(C)(COc2nc3c4c(nc(-c5cc(N)cc(C)c5C(F)(F)F)c(F)c4n2)OCC[C@@H]2[C@@H]4CC[C@H](CN32)N4)C1` (stereo partly drawn) [Example 202, 3-((6aR,7S,10R)-13-((1-ethyl-5-fluoro-3-methylpiperidin-3-yl)methoxy)-1-fluoro-5,6,6a,7,8,9,10,11-octahydro-4-oxa-3,11a,12,14,15-pentaaza-7,10-methanocyclohepta[4,5]cycloocta[1,2,3-de]naphthalen-2-yl)-5-methyl-4-(trifluoromethyl)aniline] gave an IC50 [1, 3] of 3 to 1000 nM and an IC50 [2, 4] of less than 0.3 nM.
In the case of `Cc1cc(N)cc(-c2nc3c4c(nc(OCC5(CN6C[C@@H]7[C@@H](F)[C@@H]7C6)CC5)nc4c2F)N2C[C@H]4CC[C@H](N4)[C@H]2CCO3)c1C(F)(F)F` [Example 169, 3-((6aR,7S,10R)-1-fluoro-13-((1-(((1R,5S,6S)-6-fluoro-3-azabicyclo[3.1.0]hexan-3-yl)methyl)cyclopropyl)methoxy)-5,6,6a,7,8,9,10,11-octahydro-4-oxa-3,11a,12,14,15-pentaaza-7,10-methanocyclohepta[4,5]cycloocta[1,2,3-de]naphthalen-2-yl)-5-methyl-4-(trifluoromethyl)aniline], the IC50 [1, 3] is reported as 3 to 1000 nM and the IC50 [2, 4] is reported as less than 0.3 nM.
In the case of `Cc1cc(N)cc(-c2nc3c4c(nc(OCC5(CN6CC[C@H](F)C6)CC5)nc4c2F)N2C[C@H]4CC[C@H](N4)[C@H]2CCO3)c1C(F)(F)F` [Example 157, 3-((6aR,7S,10R)-1-fluoro-13-((1-(((S)-3-fluoropyrrolidin-1-yl)methyl)cyclopropyl)methoxy)-5,6,6a,7,8,9,10,11-octahydro-4-oxa-3,11a,12,14,15-pentaaza-7,10-methanocyclohepta[4,5]cycloocta[1,2,3-de]naphthalen-2-yl)-5-methyl-4-(trifluoromethyl)aniline], the IC50 [1, 3] is reported as 3 to 1000 nM and the IC50 [2, 4] is reported as less than 0.3 nM.
In the case of `Cc1cc(N)cc(-c2nc3c4c(nc(OCC5(CN6CCC(=CF)CC6)CC5)nc4c2F)N2C[C@H]4CC[C@H](N4)[C@H]2CCO3)c1C(F)(F)F` [Example 154, 3-((6aR,7S,10R)-1-fluoro-13-((1-((4-(fluoromethylene)piperidin-1-yl)methyl)cyclopropyl)methoxy)-5,6,6a,7,8,9,10,11-octahydro-4-oxa-3,11a,12,14,15-pentaaza-7,10-methanocyclohepta[4,5]cycloocta [1,2,3-de]naphthalen-2-yl)-5-methyl-4-(trifluoromethyl)aniline], the IC50 [1, 3] is reported as 0.3 to 3 nM and the IC50 [2, 4] is reported as less than 0.3 nM.
`Cc1cc(N)cc(-c2nc3c4c(nc(OCC5(C)CC(F)CN(C)C5)nc4c2F)N2C[C@H]4CC[C@H](N4)[C@H]2CCO3)c1C(F)(F)F` (stereo partly drawn) [Example 5, 3-((6aR,7S,10R)-1-fluoro-13-((5-fluoro-1,3-dimethylpiperidin-3-yl)methoxy)-5,6,6a,7,8,9,10,11-octahydro-4-oxa-3,11a,12,14,15-pentaaza-7,10-methanocyclohepta[4,5]cycloocta [1,2,3-de]naphthalen-2-yl)-5-methyl-4-(trifluoromethyl)aniline] gave an IC50 [1, 3] of 3 to 1000 nM and an IC50 [2, 4] of less than 0.3 nM.
`Cc1cc(N)cc(-c2nc3c4c(nc(OCC5(CN6CC=CC6C6(O)CC6)CC5)nc4c2F)N2C[C@H]4CC[C@H](N4)[C@H]2CCO3)c1C(F)(F)F` (stereo partly drawn) [Example 162, 1-(1-((1-((((6aR,7S,10R)-2-(5-amino-3-methyl-2-(trifluoromethyl)phenyl)-1-fluoro-5,6,6a,7,8,9,10,11-octahydro-4-oxa-3,11a,12,14,15-pentaaza-7,10-methanocyclohepta[4,5]cycloocta[1,2,3-de]naphthalen-13-yl)oxy)methyl)cyclopropyl)methyl)-2,5-dihydro-1H-pyrrol-2-yl)cyclopropan-1-ol] gave an IC50 [1, 3] of 3 to 1000 nM and an IC50 [2, 4] of less than 0.3 nM.
For `[2H]C([2H])([2H])N1CC[C@H](OC)[C@H]1[C@H](C)Oc1nc2c3c(nc(-c4cc(N)cc(Cl)c4C(F)(F)F)c(F)c3n1)OCC[C@@H]1[C@@H]3CC[C@H](CN21)N3` [Example 218, 3-chloro-5-((6aR,7S,10R)-1-fluoro-13-((S)-1-((2R,3S)-3-methoxy-1-(methyl-d3)pyrrolidin-2-yl)ethoxy)-5,6,6a,7,8,9,10,11-octahydro-4-oxa-3,11a,12,14,15-pentaaza-7,10-methanocyclohepta[4,5]cycloocta[1,2,3-de]naphthalen-2-yl)-4-(trifluoromethyl)aniline], the IC50 [1, 3] was 0.3 to 3 nM and the IC50 [2, 4] was less than 0.3 nM.
Molecule `Cc1cc(N)cc(-c2nc3c4c(nc(OCC5(C)CC(F)CN(C6CCOCC6)C5)nc4c2F)N2C[C@H]4CC[C@H](N4)[C@H]2CCO3)c1C(F)(F)F` (single isomer, unassigned) [Example 232] has an IC50 [1, 3] of 0.3 to 3 nM and an IC50 [2, 4] of less than 0.3 nM.
